Experimental data from ChEMBL document CHEMBL2440045, “The synthesis and anticancer activity of analogs of the indole phytoalexins brassinin, 1-methoxyspirobrassinol methyl ether and cyclobrassinin” (Bioorg Med Chem, 2013).

Key:
[1] = Selectivity index, ratio of IC50 for HUVEC to IC50 for human MDA-MB-231 cells
HUVEC = experiment: Cytotoxicity against HUVEC assessed as cell viability after 48 hrs by MTT assay; format: cell-based; conditions: Homo sapiens
HeLa [2] = experiment: Antiproliferative activity against human HeLa cells assessed as cell viability after 72 hrs by MTT assay; format: functional, cell-based
HeLa [3] = experiment: Selectivity index, ratio of IC50 for HUVEC to IC50 for human HeLa cells
Jurkat [4] = experiment: Selectivity index, ratio of IC50 for HUVEC to IC50 for human Jurkat cells
MDA-MB-231 [5] = experiment: Antiproliferative activity against human MDA-MB-231 cells assessed as cell viability after 72 hrs by MTT assay; format: functional, cell-based; conditions: MDA-MB-231, 72 h
MCF7 [6] = experiment: Antiproliferative activity against human MCF7 cells assessed as cell viability after 72 hrs by MTT assay; format: functional, cell-based; conditions: MCF7, 72 h
A549 [7] = experiment: Selectivity index, ratio of IC50 for HUVEC to IC50 for human A549 cells
A549 [8] = experiment: Antiproliferative activity against human A549 cells assessed as cell viability after 72 hrs by MTT assay; format: functional, cell-based; conditions: A549, 72 h
MCF7 [9] = experiment: Selectivity index, ratio of IC50 for HUVEC to IC50 for human MCF7 cells
CCRF-CEM [10] = experiment: Antiproliferative activity against human CCRF-CEM cells assessed as cell viability after 72 hrs by MTT assay; format: functional, cell-based
CCRF-CEM [11] = experiment: Selectivity index, ratio of IC50 for HUVEC to IC50 for human CCRF-CEM cells
Jurkat [12] = experiment: Antiproliferative activity against human Jurkat cells assessed as cell viability after 72 hrs by MTT assay; format: functional, cell-based
MDA-MB-231 [13] = experiment: Potency index, ratio of etoposide IC50 to compound IC50 for human MDA-MB-231 cells; format: functional

Row | IC50 (HeLa [2]) [µM] | IC50 (MDA-MB-231 [5]) [µM] | IC50 (MCF7 [6]) [µM] | IC50 (A549 [8]) [µM] | IC50 (CCRF-CEM [10]) [µM] | IC50 (Jurkat [12]) [µM] | SMILES | Ratio IC50 [1] | IC50 (HUVEC) [µM] | Ratio IC50 (HeLa [3]) | Ratio IC50 (Jurkat [4]) | Ratio IC50 (A549 [7]) | Ratio IC50 (MCF7 [9]) | Ratio IC50 (CCRF-CEM [11]) | Ratio IC50 (MDA-MB-231 [13])
1 | 27 | 12.2 | 31.6 | 34.1 | 9 | 9.5 | c1ccc(NC2=NCc3c([nH]c4ccccc34)S2)cc1 | >8 | > 100 | >3.7 | >10 | >2.9 | 3 | >11 | –
2 | 30 | 8.6 | 29.8 | 32 | < 10 | 8.3 | Brc1ccc(NC2=NCc3c([nH]c4ccccc34)S2)cc1 | 7.5 | 64.8 | 2.2 | 7.8 | 2 | 2.2 | >6.5 | 2
3 | 21.7 | 8.9 | 33.8 | 29 | 1.7 | 8 | Fc1ccc(NC2=NCc3c([nH]c4ccccc34)S2)cc1 | 4.7 | 42 | 1.9 | 5.3 | 1.4 | 1.2 | 24.7 | 2
4 | 32.4 | 7.2 | 30 | 7.4 | 29.8 | 9.8 | Clc1ccc(NC2=NCc3c([nH]c4ccccc34)S2)cc1 | 1.2 | 8.5 | 0.3 | 0.8 | 1.1 | 0.3 | 0.3 | 2
5 | 13.9 | 7.3 | 28.7 | 30.1 | < 10 | 8.2 | COc1ccc(NC2=NCc3c([nH]c4ccccc34)S2)cc1 | 7 | 51 | 3.7 | 6.2 | 1.7 | 1.8 | >5.1 | 2
6 | 27.5 | 7.9 | 32.1 | 31.2 | 5 | 8 | Cc1ccc(NC2=NCc3c([nH]c4ccccc34)S2)cc1 | >12.6 | > 100 | >3.6 | >12.5 | >3.2 | 3.1 | >20 | 2
7 | 9.3 | 5.4 | 7.7 | 32 | 5 | 7.4 | O=[N+]([O-])c1ccc(NC2=NCc3c([nH]c4ccccc34)S2)cc1 | 10.7 | 58 | 6.2 | 7.8 | 1.8 | 7.5 | 11.6 | 2
8 | 72.4 | 36.2 | 35.7 | 40.8 | 10 | 10 | FC(F)(F)c1ccc(NC2=NCc3c([nH]c4ccccc34)S2)cc1 | 1.9 | 68.5 | 0.9 | 6.9 | 1.7 | 1.9 | 6.9 | –
9 | 69.8 | 37.1 | 38.7 | 70.1 | 7.5 | 7.5 | FC(F)(F)c1cc(NC2=NCc3c([nH]c4ccccc34)S2)cc(C(F)(F)F)c1 | 1.3 | 49.6 | 0.7 | 6.6 | 0.7 | 1.3 | 6.6 | –
10 | 25 | 38.3 | 31.2 | 31.3 | 24.7 | 25 | COc1ccc(NC2=NC[C@]3(S2)c2ccccc2N(C(=O)OC(C)(C)C)[C@@H]3OC)cc1 (racemic) | – | – | – | – | – | – | – | –
11 | 74.3 | 87 | 70.2 | 70.5 | 37.9 | 37.3 | CO[C@H]1N(C(=O)OC(C)(C)C)c2ccccc2[C@@]12CN=C(SC)S2 (racemic) | – | – | – | – | – | – | – | –
12 | 77.6 | 97.7 | 100 | 96.3 | 41.9 | 43.4 | CO[C@@H]1N(C(=O)OC(C)(C)C)c2ccccc2[C@@]12CN=C(SC)S2 (racemic) | – | – | – | – | – | – | – | –
13 | 31.7 | 40.3 | 6.2 | 29.2 | 12.2 | 10 | CO[C@H]1N(C(=O)OC(C)(C)C)c2ccccc2[C@@]12CN=C(Nc1ccccc1)S2 (racemic) | – | – | – | – | – | – | – | –
14 | 28 | 34 | 32 | 34 | 22 | 19 | CO[C@@H]1N(C(=O)OC(C)(C)C)c2ccccc2[C@@]12CN=C(Nc1ccccc1)S2 (racemic) | – | – | – | – | – | – | – | –
15 | 28 | 31.5 | 29.5 | 33 | 5 | 8 | CO[C@H]1N(C(=O)OC(C)(C)C)c2ccccc2[C@@]12CN=C(Nc1ccc(Br)cc1)S2 (racemic) | – | – | – | – | – | – | – | –
16 | 65.5 | > 100 | 78 | 76 | 50 | 30 | CO[C@@H]1N(C(=O)OC(C)(C)C)c2ccccc2[C@@]12CN=C(Nc1ccc(Br)cc1)S2 (racemic) | – | – | – | – | – | – | – | –
17 | 29 | 30 | 30 | 30 | 27 | 19 | CO[C@H]1N(C(=O)OC(C)(C)C)c2ccccc2[C@@]12CN=C(Nc1ccc(F)cc1)S2 (racemic) | – | – | – | – | – | – | – | –
18 | 27.5 | 32.5 | 30.5 | 34 | 14.5 | 15 | CO[C@@H]1N(C(=O)OC(C)(C)C)c2ccccc2[C@@]12CN=C(Nc1ccc(F)cc1)S2 (racemic) | – | – | – | – | – | – | – | –
19 | 20.8 | 42 | 36.5 | 26 | 26.5 | 23.5 | CO[C@H]1N(C(=O)OC(C)(C)C)c2ccccc2[C@@]12CN=C(Nc1ccc(Cl)cc1)S2 (racemic) | – | – | – | – | – | – | – | –
20 | 10 | 20.5 | 16 | 16.5 | 19 | 7 | CO[C@@H]1N(C(=O)OC(C)(C)C)c2ccccc2[C@@]12CN=C(Nc1ccc(Cl)cc1)S2 (racemic) | – | – | – | – | – | – | – | –
21 | > 100 | > 100 | > 100 | > 100 | 63.5 | 37.5 | COn1cc(CNC(=S)SC)c2ccccc21 [1-METHOXYBRASSININ] | – | – | – | – | – | – | – | –
22 | – | – | – | – | – | – | COc1ccc(/C=C\c2cc(OC)c(OC)c(OC)c2)cc1O [COMBRETASTATIN A4] | – | 0.005 | – | – | – | 2 | – | –
23 | 57.2 | 48.3 | 72 | 70.3 | 26.2 | 29.5 | CSC1=NCc2c([nH]c3ccccc23)S1 [CYCLOBRASSININ] | 1.2 | 57.9 | 1 | 1.9 | 0.8 | 0.8 | 2.2 | –
24 | – | – | – | – | – | – | COc1cccc2c1C(=O)c1c(O)c3c(c(O)c1C2=O)C[C@@](O)(C(=O)CO)C[C@@H]3O[C@H]1C[C@H](N)[C@H](O)[C@H](C)O1 [DOXORUBICIN] | – | 0.0807 | – | – | – | – | – | –
25 | – | – | – | – | – | – | COc1cc([C@@H]2c3cc4c(cc3[C@@H](O[C@@H]3O[C@@H]5CO[C@@H](C)O[C@H]5[C@H](O)[C@H]3O)[C@H]3COC(=O)[C@H]23)OCO4)cc(OC)c1O [ETOPOSIDE] | 0.06 | 1.25 | 0.32 | 1.04 | 0.09 | 0.11 | 1.14 | –

Row | SMILES | IC50 (HeLa [2]) [µM] | IC50 (MDA-MB-231 [5]) [µM] | IC50 (MCF7 [6]) [µM] | IC50 (A549 [8]) [µM] | IC50 (CCRF-CEM [10]) [µM] | IC50 (Jurkat [12]) [µM] | Ratio IC50 [1] | IC50 (HUVEC) [µM] | Ratio IC50 (HeLa [3]) | Ratio IC50 (Jurkat [4]) | Ratio IC50 (A549 [7]) | Ratio IC50 (MCF7 [9]) | Ratio IC50 (CCRF-CEM [11]) | Ratio IC50 (MDA-MB-231 [13])
26 | CSC(=S)NCc1c[nH]c2ccccc12 [BRASSININ] | > 100 | > 100 | > 100 | > 100 | 90.2 | > 100 | – | – | – | – | – | – | – | –
